1 compound from article doi:10.1101/350942v2 (biorxiv, 2018) can be followed below.

This experiment deals with Tv2483 (Treponema vincentii, UniProt S3MDF0, R115A). The experiment is described as follows: biochemical.

One may read the Kd as the free concentration of one partner at which half of the binding sites on the other are occupied at equilibrium, for simple one-to-one binding. A higher Kd goes with a looser complex. `N=C(N)NCCC[C@H](N)C(=O)O` [L-arginine] displayed an equilibrium dissociation constant (Kd) of 6.3 µM.
